Measured values taken from US5795977A, “Water soluble adenosine kinase inhibitors” (Metabasis Therapeutics, Inc., priority 1996, dated 1998).
Where two headings read alike, the source gives them in different places. One block for each compound: values may come before it.

How the values were obtained:
rat cardiomyocytes = details: inhibition of adenosine deaminase alone; cited from earlier work
[1] = test system: isolated guinea pig hearts; details: in the absence of ADA inhibition; cited from earlier work
mice [2] = details: cited from earlier work
ischemic cerebral injury = details: in vivo; cited from earlier work
isolated rat hearts = details: alone, cited from earlier work
Water solubility = type: physicochemical; details: suitable pH for i.v. administration (e.g. pH 4 to 10)
Experimental: The sample was sonicated for a period of up to 20 minutes. If a solution was not obtained, further solvent was added and the process was repeated until a clear solution was obtained, and the results were recorded. Solutions used were 50 mM potassium biphthalate (pH 4); 100 mM glycine (pH 9); 25 mM sodium carbonate and 25 mM sodium bicarbonate (pH 10); or deionized water (DI).

[3] = test system: male SA rats (maximal electroshock seizures); assay: Anticonvulsant activity, maximal electroshock seizures (MES); type: in vivo; details: rat, po, fasted; >> = no activity at the stated dose
Experimental: The anticonvulsant activity of the tested compounds was evaluated in male SA rats (100-150g, Simonsen) using the maximal electroshock (MES) model described in Swinyard et al., Antiepileptic Drugs, 3d Ed. at 85-102 (Levy, et al., eds.), NY: Raven Press (1989). The rats were maintained on a 12/12 light/dark cycle in temperature controlled facilities with free access to food and water. For p.o. administration, the animals are fasted overnight, prior to the experiment. One to two hours prior to seizure testing, the animals were injected interperitoneally (ip) or orally (per os, po) with one of various doses of test compound dissolved in DMSO or PEG 400.
This endpoint was expressed as the percentage of animals in which the response was inhibited.

Rats (carrageenan paw) = assay: Anti-inflammatory activity, carrageenan paw swelling; type: in vivo; details: rat, 10 mg/kg, swelling after 3 hours; for Carrageenan Paw (% inhibition) po: oral gavage
Experimental: Carrageenan (Type λ) was suspended in sterile PBS at 1% (w/v), autoclaved for 30 minutes, and stored at room temperature. Rats were pretreated with vehicle or AK inhibitor (10 mg/kg) by oral gavage or i.p. administration and the volume of the left hind paw was measured using a water displacement plethysmometer (Stoelting Co., Wood Dale, Ill.). One hour after oral treatment or 30 minutes after i.p. treatment, the rats were briefly anesthetized, and 0.1 ml of the carrageenan solution was injected subcutaneously into the planar surface of the left hind paw. The ensuing paw swelling was measured by plethysmometry after 3 hours. The paw volume in millileters was […]. Data are presented in Table 2 as the percent inhibition of paw swelling in AK inhibitor treated animals, compared to vehicle treated control animals.

[4] = biological target: partially purified pig heart adenosine kinase or recombinant human adenosine kinase; assay: AK inhibition; type: biochemical; details: 0.5 μM [U-14C] adenosine, pH 7.0, 37° C., 20 minutes
Experimental: Adenosine kinase activity was measured essentially as described by Yamada et al. Biochim. Biophys. Acta 660, 36-43 (1988) with a few minor modifications. Assay mixtures contained 50 mM TRIS-maleate buffer, pH 7.0, 0.1% BSA, 1 mM ATP 1 mM MgCl2, 0.5 μM [U-^14 C] adenosine (400-600 mCi/mmol) and varying duplicate concentrations of inhibitor. […] The amount of ^14 C-AMP was quantified by scintillation counting.

Rats (formalin paw) = assay: Formalin paw assay; type: in vivo; details: rat, oral 90 min prior, 10.3-30 min post-formalin, vs vehicle
Experimental: In this assay, injection of formalin, an irritant, into the hindpaw of rats typically evokes a biphasic response of pain-related behaviors. Phase 1 of the response which is brief, lasting approximately 0-5 min post-injection,is followed by a more prolonged phase 2, lasting approximately 10-80 min post-injection. Phase 1 behavior is thought to be a direct effect of the irritant on nociceptors at the injection site while phase 2 behavior is thought to include a hyperalgesic component mediated by sensitization of neuronal elements within the spinal cord. Studies from other laboratories have found the first portion of Phase 2 (sometimes referred to as Phase 2a) to be most responsive to pharmacological manipulation.
Rats (male, Simonsen) weighing between 100-200 g, are used in the present experiments. For screening purposes drugs are administered orally 90 min prior to initiation of formalin test. At designated intervals the animals in groups of 4 are placed individually in a small animal restrainer with the right hindpaw accessible through a hole in the bottom of the restrainer. The formalin paw assay is initiated by the injection using a 30G needle of 50 ul of a 5% formalin solution in saline into the right plantar surface of each hindpaw. […]
Scores are continuously recorded directly onto an Excel spreadsheet.

mice [5] = assay: HPLC analysis of plasma, metabolism in mice; type: in vivo, mouse; details: oral, 10 mg/kg
Female SA rats = assay: Liver toxicity assay; type: in vivo; details: rat, i.v. infusion, total dose 75 μmole/kg, serum
Experimental: Female SA rats (150-200 g) are anesthetized with halothane and cannulated via the internal jugular vein. The animals are allowed to recover for 3 days. At this time, 37.5 μmole/kg of an AK inhibitor is dissolved in 50% PEG400 and infused through the jugular catheter over 20 minutes. Twelve hours later, an additional 37.5 μmole/kg is infused over 20 minutes (total dose =75 μmole/kg). […] Liver enzymes (serum glutamic-oxaloacetic transaminase (SGOT), serum glutamic-pyruvic transaminase (SGPT), alkaline phosphatase) and total bilirubin in the serum samples are determined by a commercial laboratory.

SMILES: OC[C@H]1O[C@@H](n2cnc3c2N=CNC[C@H]3O)C[C@@H]1O [2'-deoxycoformycin]
adenosine release (rat cardiomyocytes): no effect on adenosine release

SMILES: NC[C@H]1O[C@@H](n2cnc3c(N)ncnc32)[C@H](O)[C@@H]1O [5'-amino-5'-deoxyadenosine]
effect on adenosine release [1]: not apparent

SMILES: Nc1ncnc2c1c(I)cn2[C@@H]1O[C@H](CO)[C@@H](O)[C@H]1O [5-iodotubercidin]
flaccidity (skeletal muscle relaxation) (mice [2]): pronounced general flaccidity | protection against ischemic cerebral injury (ischemic cerebral injury): does not protect against ischemic cerebral injury | perfusate adenosine concentration (isolated rat hearts; hypoxic, anoxic or ischemic conditions): no increase in perfusate adenosine concentration | perfusate adenosine concentration (isolated rat hearts; normoxic conditions): no increase in perfusate adenosine concentration

SMILES: C[C@H]1O[C@@H](n2cc(I)c3c(N)ncnc32)[C@H](O)[C@@H]1O [REF.A, reference compound]
flaccidity (skeletal muscle relaxation) (mice [2]): pronounced general flaccidity | SGPT (Female SA rats): 76 IU/L | Total Bilirubin (Female SA rats): 0.76 mg/dL

Now from value to compound, other results behind:

water solubility (Water solubility): less than 20 μg/ml
SMILES: C[C@H]1O[C@@H](n2cc(-c3ccccc3)c3c(Nc4ccccc4)ncnc32)[C@H](O)[C@@H]1O [5-phenyl-4-N-phenylamino-7-(5-deoxy-1-β-D-ribofuranosyl)pyrrolo[2,3-d]pyrimidine]

IC50 [4]: 2 nM
SMILES: C[C@H]1O[C@@H](n2cc(-c3ccccc3)c3c(Nc4ccc(CCN5CCOCC5)cc4)ncnc32)[C@H](O)[C@@H]1O [Compound 3, 4-N-[4-(2-(4-morpholino)ethyl)phenyl]amino-5-phenyl-7-(5-deoxy-β-D-ribofuranosyl)pyrrolo[2,3-d]pyrimidine]
ED50 [3]: > 10 mg/kg | Carrageenan Paw (% inhibition) ip (Rats (carrageenan paw)): 19.5% | Carrageenan Paw (% inhibition) po (Rats (carrageenan paw)): 9.8% | Phase 2 composite score, percent inhibition (Rats (formalin paw)): 31%

IC50 [4]: 1 nM
SMILES: CCN(CC)CCNCCc1ccc(Nc2ncnc3c2c(-c2ccccc2)cn3[C@@H]2O[C@H](C)[C@@H](O)[C@H]2O)cc1 [Compound 5, 4-N-[4-(2-(2-N,N-diethylaminoethyleneamino)ethyl)phenyl]amino-5-phenyl-7-(5-deoxy-β-D-ribofuranosyl)pyrrolo[2,3-d]pyrimidine]
ED50 [3]: > 10 mg/kg | Carrageenan Paw (% inhibition) ip (Rats (carrageenan paw)): 0.0% | Carrageenan Paw (% inhibition) po (Rats (carrageenan paw)): 4.1%

IC50 [4]: 10000 nM
SMILES: C[C@H]1O[C@@H](n2cc(I)c3c(NCCc4ccccn4)ncnc32)[C@H](O)[C@@H]1O [Compound 43, 4-N-(2-(2-pyridylethyl)amino)-5-iodo-7-(5-deoxy-1-β-D-ribofuranosyl)pyrrolo[2,3-d]pyrimidine]
metabolism to a potent AK inhibitor, HPLC analysis of plasma (mice [5]): undergo metabolism in mice after oral administratio

IC50 [4]: 67 nM
SMILES: C[C@H]1O[C@@H](n2cc(-c3ccccc3)c3c(NCc4ccncc4)ncnc32)[C@H](O)[C@@H]1O [Compound 49, 4-N-(4-pyridylmethyl)amino-5-phenyl-7-(5-deoxy-1-β-D-ribofuranosyl)-pyrrolo[2,3-d]pyrimidine]
ED50 [3]: > 40 mg/kg
